Results reported in a melting point compilation (Tetko et al.; mined from patent text by program, amines drawn as free bases though some values may be those of a salt).

Compound | melting point
CC(=O)Nc1ccc(Nc2c([N+](=O)[O-])cc(C(=O)O)cc2S(=O)(=O)Nc2ccccc2NC(C)=O)cc1 | 252 to 253 °C
CCOCc1nc2c(N)nc3ccc(OCc4ccccc4)cc3c2n1CC(C)(C)O | 181 to 182 °C
COc1ccc(C2COc3c(ccc(O)c3C)C2)cc1 (stereo not given) | 140 to 141 °C
CCC(C)C(NC(=O)OC)C(=O)NC(Cc1ccccc1)C(O)CN(Cc1ccc(-c2cncs2)cc1)NC(=O)OC(C)(C)C (stereo not given) | 163 to 166 °C
CC(C)c1ccc(C(=O)C2=C(O)C(=O)N(c3cccn(C)c3=O)C2c2ccc(OC(F)(F)F)cc2)cc1 (stereo not given) | 207 °C
NC1([C@@H]2CCN(c3nc4c(cc3F)c(=O)c(C(=O)O)cn4[C@@H]3C[C@@H]3F)C2)CC1 | 232 to 234 °C
CCOC(=O)C(C=O)Cc1cnc(C)c(C)c1 (stereo not given) | 148 to 149 °C
CN(C)Cc1nnc2n1-c1ccccc1C(c1ccccc1)=NC2 | 181 to 182 °C
COC(=O)c1ccc2cc(S)ccc2c1 | 150 to 151 °C
CCCCCCCCOc1ccc(-c2ccc(C(C)OC(=O)CCCCC)cc2)cc1 (single isomer, unassigned; (-)) | 60.8 °C
Cc1cc(C#N)c(N)cc1Cl | 180 °C
CC(C)(CONCc1ccccc1Cl)C(=O)O | 78 to 80 °C
CS(=O)(=O)c1ccc(/C(=C(\CCO[N+](=O)[O-])C(=O)O)c2ccc(Cl)cc2)cc1 | 143 to 144 °C
CC(=O)NCCCc1ccc(OC2CCc3cc(Cl)ccc32)cc1 (stereo not given) | 111 to 112 °C
CCOC(=O)C1=C(C)NNC(CC)=C1c1ccco1 | 82 °C
COC(=O)C(C)(C)Oc1ccc(C(=O)c2cccs2)cc1 | 85 °C
CC(=O)NCC1CCN(CC2COc3ccccc3O2)CC1 (stereo not given) | 138 °C
Cc1ncoc1C(O)c1ccc(F)cc1 (stereo not given) | 102 to 104 °C
CCCn1cnc(CO)c1C | 88 to 88.5 °C
Cc1c(F)cccc1C(=O)Nc1ccc(C(=O)N2Cc3ccccc3Cc3ccccc32)cc1Cl | 254 to 256 °C
O=S(=O)(/C=C/c1ccc(Cl)cc1)CS(=O)(=O)/C=C/c1ccc(Cl)cc1 | 178 to 180 °C
CCN(CC)C(=O)c1ccc2ccccc2c1-c1ccc(F)cc1 | 103 to 104 °C
COC(=O)C(C)Oc1cccc2cccnc12 (stereo not given) | 70 to 72 °C
COc1cc2c(cc1Nc1ncc(Cl)c(Nc3ccccc3S(=O)(=O)N(C)C)n1)CCN(CCN1CCOCC1)C(=O)C2 | 75 to 91 °C
CCCc1[nH]c2cc(C(N)=O)ccc2c1C(=O)COC | 165 to 167 °C

Compound | melting point
Nc1nc2c(ncn2COCCO)c(=S)[nH]1 | 251 to 254 °C
Nc1c(CCO)cccc1C(=O)c1ccc(Br)cc1 | 126 to 127 °C
CC[C@@H]1N(c2ccc(C#N)c(C(F)(F)F)c2)C(=O)C[C@]1(C)O | 137 to 139 °C
Cc1nc2cc(C(=O)O)c(C(=O)O)cc2n1C | 308 to 312 °C
CC1=NNC(=O)CC1c1ccc(OC2CCN(C(=O)OC(C)(C)C)CC2)cc1 (stereo not given) | 165 to 167 °C
CCOC(=O)C1=C(C)NC(SCc2ccc(OC)cc2)=NC1c1cccc([N+](=O)[O-])c1 (stereo not given) | 95 to 97 °C
O=C1CCC(N2C=Nc3ccccc3CC2)C(=O)N1 (stereo not given) | 84 to 91 °C
CCOC(=O)c1cn(CC(I)=C(I)I)c(Cl)c1Cl | 117 to 119 °C
CC(=O)CCC(=O)c1ccccc1 | 31 °C
C=CCC12CC(=O)N(C)C1(O)CCc1ccc(OC)cc12 (stereo not given) | 146 to 149 °C
CC1(C)OC(O)C(Oc2ccc(F)c(F)c2)=C1c1ccc(S(C)(=O)=O)cc1 (stereo not given) | 151 °C
CCCc1c(OCCCC(=O)O)ccc(C(C)=O)c1O | 130 to 133 °C
Cc1ccc(S(=O)C(C(=O)OC(C)(C)C)C(O)CC(OC2CCCCO2)c2ccc(Oc3ccccc3)cc2)cc1 (stereo not given) | 140 to 145 °C
CCOC(=O)C(C(=O)CCCCC(C)C)C1c2ccccc2C(=O)N1c1ccc2ccc(Cl)nc2n1 (stereo not given) | 136 °C
O=C(c1ccccc1)n1c2cc(O)c(O)cc2c2ccc(O)c(O)c21 | 242 to 243 °C
O=C(NCc1ccccc1)N1CC(Oc2cccc(C(F)(F)F)c2)C1 | 174 to 175 °C
O=C(O)c1ccc(Nc2noc(C(F)(F)F)n2)cc1 | 244 to 246 °C
COC(=O)c1cc2c(cc1[N+](=O)[O-])OCCO2 | 115 to 118 °C
CCC(=C(c1ccc(O)cc1)c1ccc(O)cc1)c1ccc(OCCO)c(OC)c1 | 158 to 159 °C
OCCSC1=NN(SCCO)CS1 | 80 °C
O=C1c2c(O)ccc(O)c2C(=O)c2c(NCCN3CCC(O)CC3)ccc(NCCN3CCC(O)CC3)c21 | 241 to 244 °C
COC(=O)CCCCCNC(=O)C(COS(C)(=O)=O)NS(=O)(=O)c1ccc(Cl)cc1 (racemic) | 81 to 84 °C
O=C(OC1CCCCO1)C(c1ccccc1)(c1ccccc1)c1ccccc1 (stereo not given) | 115 °C
CCOC(=O)COc1cc(C(C)(C)C)c(SC2=C(O)CC(CCc3ccc(O)cc3)(CCc3ccc(O)cc3)OC2=O)cc1C | 162 to 163 °C
O=C(N[C@H]1CC[C@H](CCN2CCC(c3cccc4c3CCO4)CC2)CC1)C1(O)CC1 | 164 °C

Compound | melting point
CCCOc1cnc(CN)cc1O | 159 to 160 °C
CCCCC(=NNC(=O)OC(C)(C)C)c1ccncc1 | 156 °C
CC(N)c1c[nH]c(-c2ccccc2)n1 (stereo not given) | 30 °C
C=CCn1c(C(F)(F)F)nc2ccc(-n3c(=O)cc(C(F)(F)F)n(C)c3=O)cc21 | 171 to 173 °C
CCOCn1nccc1C(=O)c1ccc(O)c(Cl)c1Cl | 115 to 117 °C
Cc1cc(C)cc(-c2cc(C(=O)NCCCCCCCc3ccccc3)cc(-c3cc(C)cc(C)c3)c2OCCCC(=O)O)c1 | 64 to 66 °C
O=S1(=O)NCN(C2CC2)c2c1ccc(F)c2F | 160 to 162 °C
CC(=O)OC1C=CC2(C)C(=CCC3C2CCC2(C)C3CCC23OCCO3)C1 (stereo not given) | 105 to 106 °C
O=C(CN1CCN(c2ccc(F)cc2)CC1)CN1CCN(c2ccc(F)cc2)CC1 | 106 to 107 °C
O=c1[nH]c2cc(Cl)ccc2c(=O)cc1NCc1ccccc1 | 309 to 314 °C
NC(=O)CCNc1ccc(OC(F)(F)F)cc1 | 76 °C
CC(C)(C)OC(=O)N1CCC(CCOc2ccc(C=NO)cc2)CC1 | 114 to 116 °C
CCCCc1nc(Cl)c(C(=O)NC)n1Cc1ccc2oc(-c3ccccc3NS(=O)(=O)C(F)(F)F)c(Br)c2c1 | 89 to 92 °C
COc1cc2c(-c3cc4c(Cl)ccnc4[nH]3)cn(CCN3CCC(CCO)CC3)c2cc1OC | 200 °C
CC(=O)Nc1ncsc1C | 62 to 64 °C
CCOCc1nc2c(N)nc3cc(OCCCc4cccc(N)c4)ccc3c2n1CC(C)(C)O | 164 to 166 °C
CCOC(=O)C=Cc1ccc(NC(C)=O)cc1 | 126 to 127 °C
CCCC(=O)NN=C(C)c1ccncc1Cl | 104 °C
CCCc1nnc2c(=O)n(C)c3ccc(OC)cc3n12 | 219 to 220 °C
CCC(C)CC(=O)OC1COC(OC(=O)CC(C)CC)CO1 (stereo not given) | 71 to 72 °C
CC(C)Cc1nc2sc3c(NCc4cccnc4)ncnc3c2c2c1CCC(C)(C)C2 | 230 °C
O=C(O)COc1ccc(S(=O)(=O)c2cccs2)c(Cl)c1Cl | 179 °C
COc1cc(N2CCC(N3CCN(C)CC3)CC2)ccc1Nc1ncc2ccc(-c3ccccc3S(=O)(=O)N(C)C)n2n1 | 198 to 205 °C
CC(C)N1C(=O)c2cnc(-c3ccccc3)nc2N(C(=O)CCl)c2ccccc21 | 204 to 205 °C
CCOC(=O)CCCOc1ccc2c(c1)C(N(CC)S(C)(=O)=O)CC(C)(C)O2 (stereo not given) | 40 to 42 °C

Compound | melting point
CC(=O)N1C(=O)N(COCc2ccccc2)C(=O)C12c1ccccc1NC(=O)N2C (stereo not given) | 209 to 211 °C
COC(=O)CCc1cc2nc(Cl)ccc2n1S(=O)(=O)c1ccc2c(c1)CCN2C(C)=O | 66 °C
Cn1c(-c2ccc(-n3ccnc3)cc2)cnc1[C@H](Cc1ccccn1)N(C=O)c1cc2cccnc2o1 | 108 to 110 °C
CCn1cc(C(=O)O)c(=O)c2cnc(N3CCN(CC(C)O)CC3)nc21 (stereo not given) | 214 to 216 °C
CCOCCOc1ccc(CCNC(=O)/C=C/c2cccs2)cc1S(=O)(=O)NC(=S)NC | 51 °C
NC(=O)N1C(=O)C(C(=O)c2ccccc2)c2ncc(Cl)cc21 (stereo not given) | 260 °C
O=C(O)C=CC(=O)c1ccc(F)cc1 | 130 to 132 °C
CC(=O)OC1CC2=CC=C3C4CCC(C(C)C=CC(C)C(C)C)C4(C)CCC3C2(C)C(OC(C)=O)C1 (stereo not given) | 128 to 130 °C
CSc1cc(C(F)(F)F)ccc1C(=O)O | 178 to 179 °C
CCCC1=C(C#N)C(c2ccccc2Cl)c2c(n[nH]c2-c2ccccc2OC)N1 (stereo not given) | > 270 °C
CC(C)(O)C[C@@H]1CO[C@](C)([C@H]2CC[C@H]3C(=O)CCC[C@@]32C)C1 | 82 °C
O=C(O)CCCCC=Cc1cn(-c2cccnc2)c2ccccc12 | 124 to 125 °C
COc1ncccc1-c1ncc(OC2SCC(O)C(O)C2O)cc1F (stereo not given) | 141 °C
CC(=O)N1CCCC(C(=O)c2ccc(N3CCCCC3)cc2)C1 (stereo not given) | 116 to 120 °C
COc1ccc(F)c2c1C=C(C#N)CO2 | 133 to 135 °C
COc1cn(-c2ccccc2F)nc(C(=O)N(C)OC)c1=O | 152 to 154 °C
CC(C)(C)OC(=O)C(C(=O)c1ccc(NS(C)(=O)=O)cc1Cl)C(=O)C1CC1 (stereo not given) | 137 to 140 °C
COc1cc2ncnc(N3CCC(C(C)=O)CC3)c2cc1OC | 116 to 117 °C
CC1(C)CCC(C)(C)c2cc(N)c(N)cc21 | 185 °C
COc1ccc(-c2nc(CNC(=O)C3=NNC(=O)CC3)sc2-c2ccc(OC)cc2)cc1 | 174 to 175 °C
O=[N+]([O-])c1ccc(NC(CO)(CO)CO)cc1 | 165 °C
COc1ccc(C(=O)O)cc1OC(=O)c1ccccc1 | 180 to 183 °C
COc1ccc(C2=C(C(=O)O)N(Cc3ccc4c(c3)OCO4)S(=O)(=O)c3ccccc32)cc1OC | 267 to 268 °C
O=C1CC(=O)N(c2ccc(Cl)cc2)N1 | 189 to 193 °C
COc1ccc(-c2nc(S(=O)(=O)c3ccc(C)cc3)n(Cc3ccccc3)c2-c2ccc(OC)cc2)cc1 | 154 to 156 °C
